Assay results as given in paper PMC12040169 (PLOS Biology, 2025).

Assay: in vitro
Conditions: human, hela cells, % viability

Row | Compound | viability at 28.5 h, 10 µM
1 | COCCCn1c(SCc2csc(-c3ccc(C)cc3)n2)n[nH]c1=O [CBK295657] | 93.3%
2 | Cc1ccc(OCC(=O)NC(C)c2ccc(F)cc2F)c([N+](=O)[O-])n1 (stereo not shown) [CBK295662] | 92.7%
3 | Cc1ccc(CN(C)C(C)C(=O)NCc2cccs2)cc1 (stereo not shown) [CBK295663] | 103%
4 | COc1ccc(CN(C(=O)CCc2c(C)[nH]c(=O)c(C#N)c2C)C2CC2)cc1 [CBK295667] | 97.6%
5 | Cc1ccc(-c2csc(=Nc3ccc(C(=O)O)cc3)n2Cc2ccccc2)cc1 [CBK296062] | 105%
6 | Cc1cc(=O)[nH]c(SCc2nc3ccccn3c2Br)n1 [CBK296063] | 121%
7 | CCOc1ccc(Nc2nc(-c3ccc(F)cc3)c(CC(=O)O)s2)cc1 [CBK296064] | 99.3%
8 | O=C(O)CCC(=O)N1N=C2C(=Cc3ccc(F)cc3)CCCC2C1c1ccc(F)cc1 (stereo not shown) [CBK296066] | 93%
9 | CSCCC(NC(=O)c1ccccc1NC(=O)c1ccc(C)cc1)C(=O)O (stereo not shown) [CBK296067] | 94.1%
10 | O=C(O)CCC(=O)N1N=C2C(=Cc3ccco3)CCCC2C1c1ccco1 (stereo not shown) [CBK296069] | 97.9%
11 | O=C(O)CCC(=O)N1N=C2C(=Cc3cccc([N+](=O)[O-])c3)CCCC2C1c1cccc([N+](=O)[O-])c1 (stereo not shown) [CBK296071] | 122%
12 | COc1ccc(C2c3cc(OC)c(OC)cc3CC(=O)N2c2ccc(C(=O)O)cc2)cc1 (stereo not shown) [CBK296074] | 93.6%
13 | CC(=O)Nc1ccc(S(=O)(=O)Nc2nc3ccccc3nc2Nc2ccc(C(=O)O)cc2)cc1 [CBK296079] | 125%
14 | Cc1c(OCc2ccc(C(=O)O)cc2)ccc2c(-c3ccccc3)cc(=O)oc12 [CBK296080] | 117%
15 | COc1ccc(C2c3cc(OC)c(OC)cc3CC(=O)N2c2ccc(C(=O)O)cc2)cc1OC (stereo not shown) [CBK296082] | 96.4%
16 | CCOc1ccc(-n2c(C)cc(C(=O)NS(=O)(=O)c3ccc(C)cc3)c2C)cc1 [CBK296084] | 90.1%
17 | Cc1ccc(S(=O)(=O)NC(=O)c2cc(C)n(-c3ccc(N(C)C)cc3)c2C)cc1 [CBK296085] | 92.9%
18 | O=C(NCCCCNC(=O)c1scc(-c2ccccc2)c1C(=O)O)c1scc(-c2ccccc2)c1C(=O)O [CBK296086] | 107%
19 | O=C(O)COc1ccc2c(=O)c(Oc3ccc(Cl)cc3)c(C(F)(F)F)oc2c1 [CBK296087] | 119%
20 | O=C(O)CCCNC(=O)COc1ccccc1OCC(=O)NCCCC(=O)O [CBK296089] | 90%
21 | O=C(Nc1ccc(SC(F)F)cc1)c1cc(-c2ccncc2)nc2ccccc12 [CBK296092] | 85.8%

Row | Compound | viability at 28.5 h, 10 µM
22 | Cc1sc(NC(=O)CC(C)(C)CC(=O)Nc2sc(C)c(C)c2C(=O)O)c(C(=O)O)c1C [CBK296094] | 98.7%
23 | COc1ccc(-c2onc(C)c2-c2cnn(-c3ccccc3)c2)c(O)c1 [CBK296095] | 116%
24 | CCOC(=O)c1c(-c2ccc(-c3ccccc3)cc2)csc1NC(=O)c1ccccc1C(=O)O [CBK296096] | 106%
25 | CCOc1ccc2cc(C3CC(c4ccccc4)=NN3C(=O)CCC(=O)O)c(Cl)nc2c1 (stereo not shown) [CBK296097] | 114%
26 | COc1ccc(C=CC(=O)ONC(=O)c2ccc(OC(F)F)cc2)cc1OC [CBK296098] | 92.8%
27 | O=c1[nH]c2ccc(NC(=S)NCc3ccccc3)cc2[nH]1 [CBK296099] | 93.8%
28 | CC(C)(CC(=O)Nc1sc2c(c1C(=O)O)CCC2)CC(=O)Nc1sc2c(c1C(=O)O)CCC2 [CBK296100] | 92.3%
29 | COc1cc(OC)c(NS(=O)(=O)c2cc(C(=O)O)ccc2C)cc1Cl [CBK296105] | 101%
30 | O=C(O)CCC(=O)N1N=C(c2c(-c3ccccc3)c3cc(Cl)ccc3[nH]c2=O)CC1c1ccccn1 (stereo not shown) [CBK296106] | 97.3%
31 | COc1ccc(C(=O)CC(SCC(NC(C)=O)C(=O)O)c2ccc(Cl)cc2)cc1OC (stereo not shown) [CBK296109] | 88.4%
32 | O=C(O)c1cccc(Nc2nc3ccccc3nc2NS(=O)(=O)c2ccc(Br)cc2)c1 [CBK296113] | 111%
33 | COC(=O)CCc1sc(NC(=O)CSCC(=O)O)nc1-c1ccc(OC)cc1 [CBK296116] | 93.6%
34 | COc1ccc(C2c3cc(OC)c(OC)cc3CC(=O)N2c2cccc(C(=O)O)c2)cc1OC (stereo not shown) [CBK296118] | 94.1%
35 | CCOc1ccc(S(=O)(=O)N(C)c2ccc(OCC(=O)O)cc2)cc1 [CBK296119] | 102%
36 | O=C(O)c1ccc(NC(=O)c2cn(-c3ccccc3)nc2-c2ccccc2)cc1 [CBK296120] | 94.4%
37 | Cc1c(NS(=O)(=O)c2cc(C(=O)O)c(Cl)cc2Cl)c(=O)n(-c2ccccc2)n1C [CBK296123] | 90.3%
38 | O=C(O)CCCC(=O)N1N=C(c2cccs2)CC1c1cn(-c2ccccc2)nc1-c1ccccc1 (stereo not shown) [CBK296124] | 90.3%
39 | CC(=O)NS(=O)(=O)c1ccc(NC(=O)c2cn(-c3ccccc3)nc2-c2cccs2)cc1 [CBK296125] | 86.3%
40 | Cc1ccc(-c2nn(-c3ccccc3)cc2C2CC(c3cccs3)=NN2C(=O)CCC(=O)O)cc1 (stereo not shown) [CBK296126] | 107%
41 | Cc1ccc2cc(C3CC(c4ccccc4)=NN3C(=O)CCC(=O)O)c(=O)[nH]c2c1 (stereo not shown) [CBK296127] | 109%
42 | COc1ccc(C2CC(c3c(-c4ccccc4)c4cc(Cl)ccc4[nH]c3=O)=NN2C(=O)CCC(=O)O)cc1OC (stereo not shown) [CBK296128] | 103%

Row | Compound | viability at 28.5 h, 10 µM
43 | O=C(O)c1ccc(NS(=O)(=O)c2ccc3c(c2)OCCO3)cc1 [CBK296129] | 108%
44 | O=C(O)c1ccc(Cl)c(S(=O)(=O)Nc2ccc(I)cc2)c1 [CBK296132] | 83.2%
45 | CCOC(=O)c1cc(-c2ccc(OC)cc2)nn1-c1ccc(C(=O)O)cc1 [CBK296133] | 87.9%
46 | COc1ccc(C2=NN(c3ccc(C(=O)O)cc3)C(c3ccc(OC)c(OC)c3)C2)cc1 (stereo not shown) [CBK296134] | 111%
47 | COc1ccc(C=CC(=O)N(C)c2ccccc2C(=O)O)cc1 [CBK296135] | 106%
48 | COc1cc(C=CC(=O)N(C)c2ccccc2C(=O)O)cc(OC)c1OC [CBK296136] | 93.1%
49 | O=C(CSc1nc2ccccc2c(=O)n1-c1ccc(F)cc1)Nc1ccc(C(=O)O)cc1 [CBK296140] | 96%
50 | O=C(NCc1ccc(N2CCCC2=O)cc1)c1cc(Br)ccc1O [CBK296614] | 91.2%
51 | CNC(=O)c1ccc(NC(=O)CC(C)(C)CC(=O)O)cc1 [CBK296615] | 95.8%
52 | Cc1cc(NC(=O)C2CC2)sc1C(=O)NC(C)c1ccc(F)cc1F (stereo not shown) [CBK296625] | 104%
53 | Cc1cc2oc(=O)cc(COC(=O)c3ccc(-n4cccn4)cc3)c2cc1Cl [CBK296626] | 93.9%
54 | COc1ccc(OCCN(C)c2cnn(-c3ccc(C(=O)O)cc3)c(=O)c2Cl)cc1 [CBK296627] | 104%
55 | O=C(O)Cc1ccc(OCC(=O)NCc2ccc(Cl)cc2Cl)cc1 [CBK296628] | 109%
56 | Cc1oc(CSc2nnc(NCc3ccc(F)cc3)s2)cc1C(=O)O [CBK296629] | 91.6%
57 | O=C(O)Cc1ccc(OCC(=O)NCCCSc2ccccc2)cc1 [CBK296630] | 91.9%
58 | O=C(O)C(CCO)Sc1nnc(Nc2ccc(Oc3ccccc3)cc2)s1 (stereo not shown) [CBK296631] | 85.7%
59 | Cn1c(Cc2csc(NC(=O)c3ccc(Cl)cc3F)n2)n[nH]c1=S [CBK296635] | 94.7%
60 | CCn1c2ccccc2c2cc(NC(=O)C(C)Sc3n[nH]c(=O)n3C3CC3)ccc21 (stereo not shown) [CBK296636] | 107%
61 | COC(=O)c1c(C)[nH]c(C(=O)N2CCCC2c2cccnc2)c1C (stereo not shown) [CBK296639] | 98.8%
62 | COC(=O)c1ccc(F)c(NC(=O)C2CCCC2)c1 [CBK296640] | 85.5%
63 | CCN(Cc1ccc(OC)c(OC)c1)C(=O)CSc1nc(CC(=O)O)cs1 [CBK296643] | 97.5%

Row | Compound | viability at 28.5 h, 10 µM
64 | CCNC(=O)COc1ccc(C=Cc2nc(-c3ccccc3)c(C(=O)O)s2)cc1OCC [CBK296644] | 94.6%
65 | CC1CCN(C(=O)c2cc(-c3ccco3)[nH]n2)CC1 [CBK296648] | 101%
66 | O=c1oc2ccccc2n1Cc1coc(-c2ccccc2)n1 [CBK296649] | 98.1%
67 | COc1ccc(N2C(=O)CC(Nc3cc(C(=O)O)ccc3C)C2=O)c(OC)c1 (stereo not shown) [CBK296650] | 114%
68 | O=C(COc1ccccc1[N+](=O)[O-])Nc1nc2c(s1)CCC2 [CBK296663] | 85.1%
69 | O=C(O)CC1(CC(=O)Nc2ccc(N3CCCC3=O)c(Cl)c2)CCCCC1 [CBK296664] | 96.3%
70 | O=C(c1ccc(Cl)cc1)N1CCN(C(=O)c2cc(O)nc3ccccc23)CC1 [CBK296666] | 103%
71 | O=C(NCC1(c2ccccc2)CCC1)C1CCCN(C(=O)c2ccoc2)C1 (stereo not shown) [CBK296670] | 85.6%
72 | Cc1ccc(S(N)(=O)=O)cc1C(=O)NC(C)CCc1ccccc1 (stereo not shown) [CBK296671] | 87.2%
73 | O=C(O)c1cccc(CSCC(=O)N2CCC(Cc3ccccc3)CC2)c1 [CBK296675] | 102%
74 | COc1cc(C(C)=O)ccc1OCC(O)Cn1c(=O)n(-c2ccccc2)c(=O)c2ccccc21 (stereo not shown) [CBK296677] | 94.4%
75 | COc1ccc(C(NC(=O)CSCc2cccc(C(=O)O)c2)c2ccc(OC)cc2)cc1 [CBK296680] | 97.6%
76 | Cc1cc(N2CCN(C(=O)c3c[nH]c(=O)[nH]3)CC2)nc(C(C)C)n1 [CBK296681] | 111%
77 | CC(NC(=O)c1nn(-c2ccc(F)cc2)c2c1CCCC2)c1ccc2c(c1)OCCO2 (stereo not shown) [CBK296682] | 103%
78 | COc1cc(C(=O)Nc2nc(Cc3n[nH]c(=S)n3C)cs2)ccc1C [CBK296683] | 90.6%
79 | O=C(c1ccc2c(c1)OCO2)N1CCN(C(=O)c2ccc(Cl)cc2F)CC1 [CBK296685] | 99%
80 | O=C(NCCCOc1ccccc1)N1CCN(S(=O)(=O)c2ccc(C(F)(F)F)cc2)CC1 [CBK296686] | 87.9%
81 | Cc1cccc2sc(NC(=O)CCCCCNC(N)=O)nc12 [CBK296689] | 106%
82 | O=c1c2cccnc2ncn1CC(O)COc1ccc(-c2ccccc2)cc1 (stereo not shown) [CBK296690] | 99.1%
